Experiments:
[1] = system: Klebsiella pneumoniae ATCC BAA-1705; assay: Mouse thigh muscle infection model, bacterial load; type: in vivo, CD-1 female mice; conditions: antibiotic alone 100 mg/kg i.v. q2h; endpoint 12 h
Protocol: (§1) 36 CD-1 female mice were divided into 12 cages with 3 […] in each cage. The day of infection was denoted as day 0.
(§2) Immunosuppressant cyclophosphamide at 150 mg/kg was injected intraperitoneally on day −4 and immunosuppressant cyclophosphamide at 100 mg/kg was injected intraperitoneally on day −1 to induce immunodeficient mice.
On day −1, the strain Klebsiella pneumoniae ATCC BAA-1705 was resuscitated on an MHA plate. Resuscitated colonies were picked and dissolved in sterile physiological saline to prepare a bacterial solution with a concentration of 5.6E+07 CFU/mL for thigh muscle infection in mice. The initial time of infection was denoted as 0 h, and 100 μL of the bacterial solution was injected into each mouse at the thigh muscle at 0 h, that is, the inoculation amount was 5.6E+06 CFU/mouse. 2 h after infection, dosing was performed according to the experimental scheme. The specific experimental scheme was as follows (see Table 4): • (1) 2 h after infection: for the 1st cage of mice, at the endpoint, thigh muscle tissue was taken and placed in 10 mL of sterile physiological saline, the tissue was homogenized by a homogenizer, and the homogenate was diluted in a gradient and spotted in a plate, with two replicates for each mouse. • (2) 2 h after infection: the 2nd to 12th cages were respectively treated at 10 mL/kg by volume according to the body weight of the mice, the 2nd cage of mice were given a vehicle by intravenous injection every 2 h, and the endpoint was 12 h; the 3rd cage of mice were given 100 mg/kg of meropenem by intravenous injection every 2 h, and the endpoint was 12 h; the 4th cage of mice were given 100 mg/kg of meropenem and 20 mg/kg of QPX7728 by intravenous injection every 2 h, and the endpoint was 12 h; the 5th cage of mice were given 100 mg/kg of meropenem and 100 mg/kg of compound 15 by intravenous injection every 2 h, and the endpoint was 12 h; the 6th cage of mice were given 100 mg/kg of meropenem and 20 mg/kg of compound 15 by intravenous injection every 2 h, and the endpoint was 12 h; the 7th cage of mice were given 100 mg/kg of meropenem and 4 mg/kg of compound 15 by intravenous injection every 2 h, and the endpoint was 12 h; the 8th cage of mice were given 100 mg/kg of cefepime by intravenous injection every 2 h, and the endpoint was 12 h; the 9th cage of mice were given 100 mg/kg of cefepime and 20 mg/kg of QPX7728 by intravenous injection every 2 h, and the endpoint was 12 h; the 10th cage of mice were given 100 mg/kg of cefepime and 100 mg/kg of compound 15 by intravenous injection every 2 h, and the endpoint was 12 h; the 11th cage of mice were given 100 mg/kg of cefepime and 20 mg/kg of compound 15 by intravenous injection every 2 h, and the endpoint was 12 h; and the 12th cage of mice were given 100 mg/kg of cefepime and 4 mg/kg of compound 15 by intravenous injection every 2 h, and the endpoint was 12 h. At the endpoint of 12 h, thigh muscle tissue was taken and placed in 10 mL of sterile physiological saline, the tissue was homogenized by a homogenizer, and the homogenate was diluted in a gradient and spotted in a plate, with two replicates for each mouse. The bacterial load in the thigh muscle tissue of the mice was counted, and the experiment was summarized as follows (see Table 5): […]

[2] = system: Klebsiella pneumoniae ATCC BAA-1705; assay: Mouse lung infection model, bacterial load; type: in vivo, CD-1 female mice; conditions: antibiotic alone 100 mg/kg i.v. q2h; endpoint 12 h
Protocol: as §1, §2
On day −1, the strain Klebsiella pneumoniae ATCC BAA-1705 was resuscitated on an MHA plate. Resuscitated colonies were picked and dissolved in sterile physiological saline to prepare a bacterial solution with a concentration of 2.75E+08 CFU/mL for lung infection by nasal drip. The initial time of infection was denoted as 0 h, and 50 μL of the bacterial solution was injected into each mouse by nasal drip at 0 h, that is, the inoculation amount was 1.38E+07 CFU/mouse. 2 h after infection, dosing was performed according to the experimental scheme. The specific experimental scheme was as follows (see Table 6): • (1) 2 h after infection: for the 1st cage of mice, at the endpoint, lung tissue was taken and placed in 10 mL of sterile physiological saline, the tissue was homogenized by a homogenizer, and the homogenate was diluted in a gradient and spotted in a plate, with two replicates for each mouse. • (2) 2 h after infection: the 2nd to 12th cages were respectively treated at 10 mL/kg by volume according to the body weight of the mice, the 2nd cage of mice were given a vehicle by intravenous injection every 2 h, and the endpoint was 12 h; the 3rd cage of mice were given 100 mg/kg of meropenem by intravenous injection every 2 h, and the endpoint was 12 h; the 4th cage of mice were given 100 mg/kg of meropenem and 20 mg/kg of QPX7728 by intravenous injection every 2 h, and the endpoint was 12 h; the 5th cage of mice were given 100 mg/kg of meropenem and 100 mg/kg of compound 15 by intravenous injection every 2 h, and the endpoint was 12 h; the 6th cage of mice were given 100 mg/kg of meropenem and 20 mg/kg of compound 15 by intravenous injection every 2 h, and the endpoint was 12 h; the 7th cage of mice were given 100 mg/kg of meropenem and 4 mg/kg of compound 15 by intravenous injection every 2 h, and the endpoint was 12 h; the 8th cage of mice were given 100 mg/kg of cefepime by intravenous injection every 2 h, and the endpoint was 12 h; the 9th cage of mice were given 100 mg/kg of cefepime and 20 mg/kg of QPX7728 by intravenous injection every 2 h, and the endpoint was 12 h; the 10th cage of mice were given 100 mg/kg of cefepime and 100 mg/kg of compound 15 by intravenous injection every 2 h, and the endpoint was 12 h: the 11th cage of mice were given 100 mg/kg of cefepime and 20 mg/kg of compound 15 by intravenous injection every 2 h, and the endpoint was 12 h; and the 12th cage of mice were given 100 mg/kg of cefepime and 4 mg/kg of compound 15 by intravenous injection every 2 h, and the endpoint was 12 h. At the endpoint, lung tissue was taken and placed in 10 mL of sterile physiological saline, the tissue was homogenized by a homogenizer, and the homogenate was diluted in a gradient and spotted in a plate, with two replicates for each mouse. The bacterial load in the lung tissue of the mice was counted, and the experiment was summarized as follows (see Table 7): […]

[3] = system: Klebsiella pneumoniae ATCC BAA-2470 (NDM-1); assay: MIC shift, liquid microdilution, meropenem fixed at 4 μg/mL; type: cell-based; conditions: compound + meropenem fixed at 4 μg/mL; K. pneumoniae ATCC BAA-2470, NDM-1
Protocol: (§3) The test compound was tested for minimum inhibitory concentration against three strains of Klebsiella pneumoniae ATCC BAA-1705 (KPC-2), ATCC BAA-2470 (NDM-1), and ARLG-1196 (CTM-1 group, SHV, NDM, TEM), and one strain of Escherichia coli ARLG-2829 (NDM-5, OXA-1). According to the requirements of the Institute of Clinical And Laboratory Standard (CLSI), the minimum inhibitory concentration (MIC) of each drug combination was determined by liquid microdilution method under the premise of fixing the concentration of meropenem at 4 μg/mL.
(§4) Preparation of compound mother plate: On the day of the experiment, the compound to be tested (the final concentration was 0.3125 to 20 μg/mL) and meropenem (the final concentration ranged from 1 to 64 μg/mL) were dissolved in a corresponding solvent (sterile ddH2O or DMSO) to form 100× mother liquors with the highest test concentration, and the compound to be tested and meropenem were then subjected to 2-fold series gradient dilution in a V-bottom 96-well plate to obtain 100× working solutions with the final concentration.
(§5) Preparation of inoculation solution: Fresh bacterial clones were picked from an overnight Mueller Hinton II Agar medium (MHA, Cat. No. 211438, BD BBLTM) plate, suspended in sterilized physiological saline, and adjusted to a concentration of 1×10^8 CFU/mL, and the suspension was further diluted to 5-10^5 CFU/mL with Cation-Adjusted Mueller Hinton II Broth (MHB, Catalog #212332, BD BBLTM).
(§6) Detection of minimum inhibitory concentration (MIC): 1 μL of the compound to be tested and the meropenem working solution were transferred to the corresponding wells to be tested in a round-bottomed 96-well plate (Catalog #3788, Corning), and 98 μL of the inoculation solution was added to the round-bottomed 96-well plate containing drugs, which was an MIC test plate; and after the plate was inverted and cultured at 37° C. for 20-24 h, the MIC value was read, and the minimum inhibitory concentration for inhibiting bacterial growth was defined as MIC.

[4] = system: Escherichia coli ARLG-2829 (NDM-5, OXA-1); assay: as above; type: cell-based; conditions: compound + meropenem fixed at 4 μg/mL; E. coli ARLG-2829 (urine clinical isolate), NDM-5, OXA-1
Protocol: as §3, §4, §5, §6

[5] = system: Klebsiella pneumoniae ARLG-1196 (CTM-1 group, SHV, NDM, TEM); assay: as above; type: cell-based; conditions: compound + meropenem fixed at 4 μg/mL; K. pneumoniae ARLG-1196, CTM-1 and isoforms thereof, SHV, NDM, TEM
Protocol: as §3, §4, §5, §6

[6] = system: Klebsiella pneumoniae ATCC BAA-1705 (KPC-2); assay: as above; type: cell-based; conditions: compound + meropenem fixed at 4 μg/mL; K. pneumoniae ATCC BAA-1705, KPC-2
Protocol: as §3, §4, §5, §6

Row | Structure (SMILES) | Average CFU in mice (thigh muscle tissue) [1] [CFU/mouse] | Average CFU in mice (lung tissue) [2] [CFU/mouse] | MIC [3] [µg/mL] | MIC [4] [µg/mL] | MIC [5] [µg/mL] | MIC [6] [µg/mL]
1 | CO/N=C(\C(=O)N[C@@H]1C(=O)N2C(C(=O)[O-])=C(C[N+]3(C)CCCC3)CS[C@H]12)c1csc(N)n1 [Cefepime, cefepime, reference compound] | 4.25E+07 | 1.90E+08 | – | – | – | –
2 | CC1(C)Oc2ccc(F)c(C(=O)O)c2OB1O [Compound 1] | – | – | >20 | >20 | >20 | 0.0625
3 | COB1Oc2c(ccc(F)c2C(=O)O)OC1(C)C [Compound 2] | – | – | >20 | >20 | >20 | 20
4 | COc1ccc2c(c1C(=O)O)OB(O)CO2 [Compound 3] | – | – | 5 | 5 | 2.5 | ≤0.3125
5 | O=C(O)c1c(F)cc(Cl)c2c1OB(O)CO2 [Compound 4] | – | – | 2.5 | 10 | 2.5 | ≤0.03
6 | O=C(O)c1c(Cl)ccc2c1OB(O)CO2 [Compound 5] | – | – | 20 | >20 | 10 | ≤0.3125
7 | O=C(O)c1c(F)c(F)cc2c1OB(O)CO2 [Compound 6] | – | – | 10 | 20 | 10 | ≤0.03
8 | O=C(O)c1ccc(Cl)c2c1OB(O)CO2 [Compound 7] | – | – | 20 | >20 | 20 | ≤0.03
9 | O=C(O)c1c(F)ccc2c1OB(O)CO2 [Compound 8] | – | – | 20 | 20 | 10 | ≤0.3125
10 | COB1COc2ccc(F)c(C(=O)O)c2O1 [Compound 9] | – | – | >20 | >20 | >20 | ≤0.3125
11 | O=C(O)c1cc(F)cc2c1OB(O)CO2 [Compound 10] | – | – | 5 | 10 | 2.5 | ≤0.03
12 | COc1cc(Cl)c2c(c1C(=O)O)OB(O)CO2 [Compound 11] | – | – | 2.5 | 10 | 2.5 | ≤0.03
13 | COc1c(Cl)c(Cl)c2c(c1C(=O)O)OB(O)CO2 [Compound 12] | – | – | 5 | 10 | 2.5 | 0.06
14 | O=C(O)c1c2c(cc3c1O[B-](O)(O)CO3)CCCO2 [Compound 14] | – | – | 5 | 10 | 2.5 | ≤0.3125
15 | COc1cc2c(c(C(=O)O)c1F)O[B-](O)(O)CO2 [Compound 16] | – | – | 5 | 10 | 5 | 0.625
16 | Cc1ccc2c(c1C(=O)O)O[B-](O)(O)CO2 [Compound 17] | – | – | 10 | 20 | 10 | ≤0.3125
17 | O=C(O)c1c(OCC2CC2)ccc2c1O[B-](O)(O)CO2 [Compound 20] | – | – | 2.5 | 2.5 | 2.5 | 1.25
18 | O=C(O)c1c(OC2COC2)ccc2c1O[B-](O)(O)CO2 [Compound 23] | – | – | 1.25 | 5 | 1.25 | 0.625
19 | CCCOc1ccc2c(c1C(=O)O)O[B-](O)(O)CO2 [Compound 29] | – | – | 2.5 | 5 | 1.25 | 0.625
